# In ChEMBL document CHEMBL1201862, “PubChem BioAssay data set” (2004):
# The source made the active and inactive calls.
# Assays:
# [1] = target: T1, Replicative DNA helicase DnaB (Mycobacterium tuberculosis, UniProt P9WMR3); assay: DnaB intein splicing inhibitors, dose response, biochemical, cell-free fluorescence (AID 449749); type: functional
# T1 sequence (P9WMR3 whole entry): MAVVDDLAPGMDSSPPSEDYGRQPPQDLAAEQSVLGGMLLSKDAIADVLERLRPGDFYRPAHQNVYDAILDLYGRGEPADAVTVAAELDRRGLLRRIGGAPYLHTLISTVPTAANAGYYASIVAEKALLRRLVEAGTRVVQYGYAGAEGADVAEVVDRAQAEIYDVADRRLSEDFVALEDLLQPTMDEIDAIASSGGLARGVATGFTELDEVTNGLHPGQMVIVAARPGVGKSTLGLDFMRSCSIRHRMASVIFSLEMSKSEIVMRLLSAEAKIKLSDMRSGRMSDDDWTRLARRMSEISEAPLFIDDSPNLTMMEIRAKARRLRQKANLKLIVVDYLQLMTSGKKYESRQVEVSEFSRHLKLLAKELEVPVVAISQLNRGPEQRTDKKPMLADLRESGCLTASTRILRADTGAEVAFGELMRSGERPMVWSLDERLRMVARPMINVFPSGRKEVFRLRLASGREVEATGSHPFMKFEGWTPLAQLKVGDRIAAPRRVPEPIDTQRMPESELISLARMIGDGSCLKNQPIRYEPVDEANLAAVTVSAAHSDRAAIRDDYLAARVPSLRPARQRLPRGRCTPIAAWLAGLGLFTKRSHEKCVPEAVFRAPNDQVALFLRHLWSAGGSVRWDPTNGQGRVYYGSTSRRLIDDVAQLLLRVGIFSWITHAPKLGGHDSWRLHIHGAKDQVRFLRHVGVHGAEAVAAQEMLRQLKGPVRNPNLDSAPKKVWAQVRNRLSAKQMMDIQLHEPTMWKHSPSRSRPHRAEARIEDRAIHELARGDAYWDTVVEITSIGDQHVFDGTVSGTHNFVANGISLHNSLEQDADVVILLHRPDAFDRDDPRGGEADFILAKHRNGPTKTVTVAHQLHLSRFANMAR
# [2] = target: T2, Protein RecA (Mycobacterium tuberculosis, UniProt P9WHJ3); assay: Fluorescence Cell-Free Homogeneous Dose Retest to Identify Inhibitors of RecA-Intein Splicing Activity. [Related pubchem assays (depositor defined):AID2097, AID2223, AID489010, AID492950]; type: functional
# T2 sequence (P9WHJ3 whole entry): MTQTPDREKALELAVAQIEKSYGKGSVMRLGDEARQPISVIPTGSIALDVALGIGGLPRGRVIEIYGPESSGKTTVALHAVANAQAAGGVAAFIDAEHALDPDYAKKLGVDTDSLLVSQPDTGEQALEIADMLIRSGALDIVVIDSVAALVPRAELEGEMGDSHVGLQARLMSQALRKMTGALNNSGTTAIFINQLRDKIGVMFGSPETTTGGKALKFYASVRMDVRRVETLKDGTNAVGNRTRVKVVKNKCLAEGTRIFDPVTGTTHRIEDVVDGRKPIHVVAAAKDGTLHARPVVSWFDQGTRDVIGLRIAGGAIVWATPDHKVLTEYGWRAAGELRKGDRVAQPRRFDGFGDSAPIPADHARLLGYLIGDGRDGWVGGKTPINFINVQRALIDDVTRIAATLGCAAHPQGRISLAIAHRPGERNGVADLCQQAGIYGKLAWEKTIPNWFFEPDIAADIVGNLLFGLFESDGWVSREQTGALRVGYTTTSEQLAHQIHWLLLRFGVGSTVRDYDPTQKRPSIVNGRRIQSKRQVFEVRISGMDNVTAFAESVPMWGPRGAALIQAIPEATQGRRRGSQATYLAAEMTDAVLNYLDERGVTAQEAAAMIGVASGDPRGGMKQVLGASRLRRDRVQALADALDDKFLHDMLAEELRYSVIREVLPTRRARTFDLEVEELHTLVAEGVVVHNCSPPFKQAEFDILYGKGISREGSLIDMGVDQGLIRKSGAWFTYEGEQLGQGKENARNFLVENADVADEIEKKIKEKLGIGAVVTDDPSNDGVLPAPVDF
# [3] = target: Genome polyprotein (dengue virus type 2, UniProt P29990); assay: flavivirus cap methylation enzyme inhibition – biochemical, confirmation dose response, primary screen (AID 588689); type: functional
# Sequence of Genome polyprotein (P29990 2492-3391 limits assumed): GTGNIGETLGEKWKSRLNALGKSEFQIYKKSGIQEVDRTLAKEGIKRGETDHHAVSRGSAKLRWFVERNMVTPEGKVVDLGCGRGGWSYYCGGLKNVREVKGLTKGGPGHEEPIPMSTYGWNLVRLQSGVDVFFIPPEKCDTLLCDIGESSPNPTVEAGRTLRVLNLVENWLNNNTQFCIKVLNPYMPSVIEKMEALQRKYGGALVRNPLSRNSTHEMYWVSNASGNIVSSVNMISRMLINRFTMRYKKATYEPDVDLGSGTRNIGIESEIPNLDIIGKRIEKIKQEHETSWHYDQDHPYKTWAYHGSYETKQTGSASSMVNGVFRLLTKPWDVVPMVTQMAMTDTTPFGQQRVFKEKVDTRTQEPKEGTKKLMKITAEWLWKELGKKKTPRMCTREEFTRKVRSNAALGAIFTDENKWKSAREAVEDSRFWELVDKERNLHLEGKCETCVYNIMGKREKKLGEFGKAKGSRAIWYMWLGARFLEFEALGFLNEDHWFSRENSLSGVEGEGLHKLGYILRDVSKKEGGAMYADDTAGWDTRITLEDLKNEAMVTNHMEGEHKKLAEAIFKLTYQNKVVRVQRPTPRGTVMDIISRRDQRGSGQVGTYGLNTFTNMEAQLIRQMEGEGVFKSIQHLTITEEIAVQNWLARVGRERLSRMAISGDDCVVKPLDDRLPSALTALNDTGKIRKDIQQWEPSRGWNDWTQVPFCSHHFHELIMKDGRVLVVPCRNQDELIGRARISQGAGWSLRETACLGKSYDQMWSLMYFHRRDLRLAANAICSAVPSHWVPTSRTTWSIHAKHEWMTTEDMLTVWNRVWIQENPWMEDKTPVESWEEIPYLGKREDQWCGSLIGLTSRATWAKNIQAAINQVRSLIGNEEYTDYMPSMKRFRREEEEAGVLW
# [4] = target: Glyceraldehyde-3-phosphate dehydrogenase (Homo sapiens, UniProt P04406)
# Sequence of Glyceraldehyde-3-phosphate dehydrogenase (P04406 whole entry): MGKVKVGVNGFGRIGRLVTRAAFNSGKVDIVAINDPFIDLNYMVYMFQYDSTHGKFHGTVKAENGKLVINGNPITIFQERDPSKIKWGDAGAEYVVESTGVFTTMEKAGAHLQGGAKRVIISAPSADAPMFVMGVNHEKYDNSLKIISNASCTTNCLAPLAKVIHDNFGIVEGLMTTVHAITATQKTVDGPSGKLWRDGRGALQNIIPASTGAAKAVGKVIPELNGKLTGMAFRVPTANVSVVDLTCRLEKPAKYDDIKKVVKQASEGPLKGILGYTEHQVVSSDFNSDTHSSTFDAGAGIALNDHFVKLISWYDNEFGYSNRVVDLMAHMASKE
# [5] = Trypanosoma cruzi growth suppression in host cells – NIH3T3 host cells, beta-gal luminescence, confirmation (AID 2044); type: functional, cell-based;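 further: intracellular parasites grown in NIH/3T3 mouse fibroblasts as host cells; luminescent beta-galactosidase reporter signal from transgenic T. cruzi replicating inside host cells; inhibitors lower the luminescence signal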
# [6] = NIH3T3 cell viability loss – ATP luminescence, mouse fibroblasts, counter-screen, dose response (AID 2010); type: functional, cell-based;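 further: cells exposed to compound for about 90 hours before reading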
# [7] = target: DNA dC->dU-editing enzyme APOBEC-3G (Homo sapiens, UniProt Q9HC16); assay: Dose Response confirmation of small molecule APOBEC3G DNA Deaminase Inhibitors via a fluorescence-based single-stranded DNA deaminase assay. [Related pubchem assays (depositor defined):AID493012, AID493028]; type: functional
# Sequence of DNA dC->dU-editing enzyme APOBEC-3G (Q9HC16 whole entry): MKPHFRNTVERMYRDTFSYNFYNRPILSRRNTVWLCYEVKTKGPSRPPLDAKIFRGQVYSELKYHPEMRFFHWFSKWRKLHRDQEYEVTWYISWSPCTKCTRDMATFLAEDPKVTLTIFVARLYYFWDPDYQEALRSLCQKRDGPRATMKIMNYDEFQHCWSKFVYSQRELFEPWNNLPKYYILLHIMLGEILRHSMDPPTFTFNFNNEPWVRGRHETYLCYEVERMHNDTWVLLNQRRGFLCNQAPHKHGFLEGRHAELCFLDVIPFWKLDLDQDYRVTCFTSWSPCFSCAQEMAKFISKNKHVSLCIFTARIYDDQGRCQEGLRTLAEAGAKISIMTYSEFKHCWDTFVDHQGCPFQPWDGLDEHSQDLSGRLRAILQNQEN
# [8] = target: T3, Fatty acid synthase (Homo sapiens, UniProt P49327); assay: inhibition of human FAS-TE enzyme activity – biochemical, endpoint fluorescence intensity, uHTS hits, dose response (AID 624327); type: functional;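 further: fluorescence from hydrolysis of an O-methyl fluorescein acyl ester substrate by the enzyme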
# T3 sequence (P49327 whole entry): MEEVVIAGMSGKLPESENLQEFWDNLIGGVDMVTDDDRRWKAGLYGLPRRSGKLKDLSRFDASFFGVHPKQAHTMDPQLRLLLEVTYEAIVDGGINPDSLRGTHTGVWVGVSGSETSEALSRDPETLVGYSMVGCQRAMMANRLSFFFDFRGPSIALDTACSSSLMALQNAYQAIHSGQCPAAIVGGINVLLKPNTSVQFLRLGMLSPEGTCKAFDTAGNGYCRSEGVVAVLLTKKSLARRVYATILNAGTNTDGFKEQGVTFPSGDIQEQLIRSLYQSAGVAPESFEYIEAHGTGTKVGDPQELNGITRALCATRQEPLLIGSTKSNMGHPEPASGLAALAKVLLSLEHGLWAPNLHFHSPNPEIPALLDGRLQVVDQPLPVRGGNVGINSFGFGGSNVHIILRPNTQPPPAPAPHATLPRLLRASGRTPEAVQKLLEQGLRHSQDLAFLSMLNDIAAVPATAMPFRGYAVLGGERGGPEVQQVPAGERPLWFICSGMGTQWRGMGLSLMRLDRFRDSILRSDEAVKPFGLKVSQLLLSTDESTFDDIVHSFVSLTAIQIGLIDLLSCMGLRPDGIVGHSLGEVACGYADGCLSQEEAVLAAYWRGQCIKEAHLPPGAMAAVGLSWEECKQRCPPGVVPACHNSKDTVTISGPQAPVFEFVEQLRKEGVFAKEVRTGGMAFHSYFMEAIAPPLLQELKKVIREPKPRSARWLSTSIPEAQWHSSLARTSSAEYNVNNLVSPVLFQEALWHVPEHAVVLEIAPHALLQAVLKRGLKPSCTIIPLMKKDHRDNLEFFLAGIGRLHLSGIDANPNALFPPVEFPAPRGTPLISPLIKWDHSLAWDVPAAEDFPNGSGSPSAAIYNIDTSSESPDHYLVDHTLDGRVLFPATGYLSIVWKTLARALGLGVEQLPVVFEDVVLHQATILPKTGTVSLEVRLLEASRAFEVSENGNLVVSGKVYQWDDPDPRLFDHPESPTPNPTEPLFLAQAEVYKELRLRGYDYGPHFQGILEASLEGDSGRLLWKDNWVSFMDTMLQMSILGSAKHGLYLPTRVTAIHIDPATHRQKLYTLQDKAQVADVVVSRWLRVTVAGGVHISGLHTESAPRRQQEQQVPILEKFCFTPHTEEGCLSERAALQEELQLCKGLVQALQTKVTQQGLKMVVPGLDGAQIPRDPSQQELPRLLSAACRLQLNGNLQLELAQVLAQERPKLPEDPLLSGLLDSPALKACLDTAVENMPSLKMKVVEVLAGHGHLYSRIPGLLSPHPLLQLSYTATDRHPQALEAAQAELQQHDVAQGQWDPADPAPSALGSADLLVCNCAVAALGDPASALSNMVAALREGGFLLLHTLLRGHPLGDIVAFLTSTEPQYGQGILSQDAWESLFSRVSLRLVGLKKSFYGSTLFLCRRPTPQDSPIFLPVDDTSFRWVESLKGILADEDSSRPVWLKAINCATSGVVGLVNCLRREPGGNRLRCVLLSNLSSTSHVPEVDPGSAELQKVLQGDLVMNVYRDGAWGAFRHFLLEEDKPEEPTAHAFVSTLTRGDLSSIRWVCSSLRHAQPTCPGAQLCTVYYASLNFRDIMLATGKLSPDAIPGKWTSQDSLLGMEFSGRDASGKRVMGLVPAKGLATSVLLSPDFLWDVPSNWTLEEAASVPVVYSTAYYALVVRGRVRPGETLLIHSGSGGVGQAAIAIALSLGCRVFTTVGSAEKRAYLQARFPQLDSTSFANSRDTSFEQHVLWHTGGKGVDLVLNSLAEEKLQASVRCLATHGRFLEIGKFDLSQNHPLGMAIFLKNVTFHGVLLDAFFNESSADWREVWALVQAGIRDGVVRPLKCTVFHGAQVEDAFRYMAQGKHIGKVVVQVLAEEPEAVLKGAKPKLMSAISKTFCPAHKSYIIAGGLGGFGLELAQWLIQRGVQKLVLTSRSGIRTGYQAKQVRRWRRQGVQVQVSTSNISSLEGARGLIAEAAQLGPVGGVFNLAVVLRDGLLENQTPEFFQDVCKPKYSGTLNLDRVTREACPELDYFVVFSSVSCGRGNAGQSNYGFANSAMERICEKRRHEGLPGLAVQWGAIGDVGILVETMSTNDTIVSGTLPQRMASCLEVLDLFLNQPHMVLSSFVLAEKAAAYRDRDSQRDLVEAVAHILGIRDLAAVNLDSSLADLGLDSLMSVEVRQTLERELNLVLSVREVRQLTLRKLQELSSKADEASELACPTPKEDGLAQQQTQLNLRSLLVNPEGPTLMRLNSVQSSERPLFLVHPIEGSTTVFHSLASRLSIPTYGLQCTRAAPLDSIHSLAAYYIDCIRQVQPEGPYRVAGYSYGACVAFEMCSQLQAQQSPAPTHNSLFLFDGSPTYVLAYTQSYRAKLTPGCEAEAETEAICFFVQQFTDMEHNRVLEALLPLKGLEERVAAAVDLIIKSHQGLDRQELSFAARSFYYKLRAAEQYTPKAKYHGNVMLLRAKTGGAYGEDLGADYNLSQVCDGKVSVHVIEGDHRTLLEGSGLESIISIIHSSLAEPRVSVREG
# [9] = target: T3, Fatty acid synthase; assay: inhibition of human FAS-TE enzyme activity – biochemical, kinetic fluorescence intensity, dose response (AID 624326); type: functional;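 further: rate of fluorescence rise from hydrolysis of a fluorogenic O-methyl fluorescein ester substrate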
# [10] = viability loss in HeLa cells – cytotoxicity control for MgcRacGAP inhibitor project, dose response (AID 624300); type: functional
# [11] = target: T4, Rac GTPase-activating protein 1 (Homo sapiens, UniProt Q9H0H5); assay: blockers of MgcRacGAP-driven Rac1 GTP hydrolysis – biochemical, ADP Hunter fluorescence, primary and confirmatory, confirmation (AID 624330); type: functional
# T4 sequence (Q9H0H5 whole entry): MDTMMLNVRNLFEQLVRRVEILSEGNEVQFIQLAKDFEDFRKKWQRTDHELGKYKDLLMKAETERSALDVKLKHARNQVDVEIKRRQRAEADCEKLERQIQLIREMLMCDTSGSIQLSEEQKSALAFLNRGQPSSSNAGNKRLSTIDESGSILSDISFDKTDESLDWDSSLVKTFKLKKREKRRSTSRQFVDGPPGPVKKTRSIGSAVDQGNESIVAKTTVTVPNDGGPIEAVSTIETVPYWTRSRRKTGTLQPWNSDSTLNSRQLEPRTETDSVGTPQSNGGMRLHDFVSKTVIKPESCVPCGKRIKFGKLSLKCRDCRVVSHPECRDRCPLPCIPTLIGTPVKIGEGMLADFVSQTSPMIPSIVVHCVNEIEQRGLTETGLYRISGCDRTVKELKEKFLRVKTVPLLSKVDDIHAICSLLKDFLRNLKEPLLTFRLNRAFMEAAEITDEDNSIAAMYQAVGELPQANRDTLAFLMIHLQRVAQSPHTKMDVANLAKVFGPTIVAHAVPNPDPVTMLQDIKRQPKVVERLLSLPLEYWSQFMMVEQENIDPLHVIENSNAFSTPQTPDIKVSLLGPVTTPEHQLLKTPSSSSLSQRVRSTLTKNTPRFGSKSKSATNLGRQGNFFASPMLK
# [12] = test system: Vero; assay: cells; type: functional, cell-based; details: Chlorocebus sabaeus
# [13] = test system: Vero; assay: cells; type: functional; details: Chlorocebus sabaeus
# [14] = intracellular Trypanosoma cruzi inhibitors in host cells – cell-based, plate reader, cherry-pick samples, set 3, dose response (AID 651818); type: functional;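 further: compounds incubated with infected cells for about four days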
# [15] = growth inhibition of yeast DHODH-expressing 3D7 parasites – SYBR Green, dry powder samples, dose response (AID 1159570); type: functional, cell-based;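 further: parasite growth measured after 72 hours of compound exposure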
# [16] = P. falciparum Dd2 growth inhibitors, dose response, SYBR Green, cherry-picked samples (AID 1159567); type: functional, cell-based
# [17] = Dd2 malaria parasite growth inhibition potency – SYBR Green, dry powder samples, dose response (AID 1159566); type: functional, cell-based;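 further: potency for growth inhibition with lower SYBR green DNA signal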
# [18] = growth inhibition of PfATP4-mutant resistant parasites – NITD609-resistant line, SYBR Green, dry powder, dose response (AID 1159571); type: functional, cell-based;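 further: parasites synchronized at ring stage by sorbitol before testing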
smiles,measurement,setting,value
O=C(O)CN1C(=O)/C(=C\c2cccc(OCc3ccc(Cl)cc3Cl)c2)SC1=S,AC50,[1],2.73 µM (active)
same,EC50,[2],11.1 µM (active)
same,IC50,[3],36 µM (active)
O=C1C(Cl)=C(N2CCN(Cc3ccccc3)CC2)C(=O)N1c1ccc(Cl)nc1,IC50,[4],> 50 µM (inconclusive)
COc1ccc(-n2c(SCC(=O)C(C)(C)C)nc3c(sc(=S)n3-c3ccccc3)c2=O)c(OC)c1,EC50,[5],0.714 µM (active)
same,EC50,[6],> 60 µM (not active)
same,IC50,[7],66.5 µM (active)
Cc1ccc(C(=O)O/N=C(\N)Cc2cccs2)cc1[N+](=O)[O-],IC50,[8],9.57 µM (active)
same,IC50,[9],8.33 µM (active)
CN(C)C=O.O=C(O)c1ccccc1NS(=O)(=O)c1ccc(NN=Cc2ccc(F)cc2)c([N+](=O)[O-])c1,IC50,[8],7.9 µM (active)
same,IC50,[9],4.43 µM (active)
O=C(COC(=O)c1cc([N+](=O)[O-])ccc1Cl)NCCc1ccccc1,IC50,[8],3.93 µM (active)
same,IC50,[9],5.26 µM (active)
c1ccc2c(c1)Nc1ccncc1S2,CC50,[10],100 µM (active)
same,IC50,[11],269 µM (active)
CC1CCCN(CCOc2ccc3ccccc3c2Br)C1 (stereo unspecified),CC50,[10],68.9 µM (active)
same,IC50,[11],142 µM (active)
Cc1oc2c(c1C(=O)Nc1cccc(C(=O)O)c1)CCCC2,IC50,[4],> 100 µM (not active)
O=C(CSc1ncnc2c1cnn2-c1ccccc1)NC1CCCC1,IC50,[8],5.94 µM (active)
same,IC50,[9],5.67 µM (active)
CCc1c(C(=O)NC2CCCc3ccccc32)[nH]c(C)c1C(C)=O (stereo unspecified),IC50,[12],9.95 µM (active)
same,CC50,[13],> 25 µM (active)
O=C(CN(CC(=O)N1CCOCC1)S(=O)(=O)c1ccc(Br)s1)N1CCOCC1,IC50,[7],74.3 µM (active)
C[C@@H]1CN([C@H](C)CO)C(=O)Cc2cc(NC(=O)NC3CCCCC3)ccc2O[C@H]1CN(C)Cc1ccc(Oc2ccccc2)cc1,AC50,[14],3.58 µM (active)
C[C@H]1CN([C@@H](C)CO)C(=O)c2cc(NS(=O)(=O)c3ccc(F)cc3)ccc2O[C@@H]1CN(C)Cc1ccc(Cl)c(Cl)c1,AC50,[14],4.6 µM (active)
COc1ccc(S(=O)(=O)Nc2cccc3c2O[C@@H](CN(C)Cc2ccc(C(=O)Nc4ccccc4N)cc2)[C@H](C)CN([C@@H](C)CO)C3=O)cc1,AC50,[14],3.61 µM (active)
C[C@@H]1CCCCO[C@H](CN(C)C(=O)C2CCCCC2)[C@@H](C)CN([C@H](C)CO)C(=O)c2cc(NC(=O)Nc3ccc(C(F)(F)F)cc3)ccc2O1,AC50,[14],6.88 µM (active)
C[C@H](CO)N1C[C@H](C)[C@@H](CN(C)Cc2ccncc2)Oc2c(NC(=O)Nc3ccc(C(F)(F)F)cc3)cccc2C1=O,AC50,[14],2.97 µM (active)
C[C@H]1CN([C@@H](C)CO)C(=O)c2c(c3ccccc3n2C)-c2ccccc2CO[C@@H]1CN(C)C(=O)Nc1ccc(-c2ccccc2)cc1,AC50,[15],0.787 µM (active)
same,AC50,[16],1.38 µM (active)
same,AC50,[17],0.507 µM (active)
same,AC50,[18],0.532 µM (active)
C[C@H](CO)N1C[C@H](C)[C@H](CN(C)CC2CC2)Oc2ccc(NC(=O)Nc3ccccc3)cc2CC1=O,AC50,[15],3.81 µM (active)
same,AC50,[16],2.08 µM (active)
same,AC50,[17],3.39 µM (active)
same,AC50,[18],4.64 µM (active)
C[C@@H]1CN([C@@H](C)CO)C(=O)c2cccc(NC(=O)c3nc4ccccc4s3)c2O[C@H]1CN(C)C(=O)NC1CCCCC1,AC50,[15],0.846 µM (active)
same,AC50,[16],1.37 µM (active)
same,AC50,[17],1.08 µM (active)
same,AC50,[18],1.05 µM (active)
Cc1ccc2oc(=O)c3cnn(CC(=O)Nc4ccccc4N4CCN(C)CC4)c3c2c1,IC50,[12],9.16 µM (active)
